Assays:
[1] = Cytotoxicity/antiproliferative assay (MTT) on MCF-7; format: cell-based; conditions: human, MCF-7 cells (breast adenocarcinoma), read-out: Cytotoxicity (% cell viability at 30 µM) MCF-7
Description: (§1) XO inhibitory and antioxidant assays were performed in triplicate while antiproliferative assay was conducted in quadruplicate. For each assay, at least two independent experiments were performed. An initial screening at the concentration of 30 μM for all compounds under study was performed in each in vitro study. A second screening at 5 μM was performed for compounds that originated an inhibitory potential higher than 80% for the XO activity at 30 μM. Half-maximal inhibitory concentration (IC50) studies were performed for drugs used as a reference and for the most promising bis-thiobarbiturate in XO inhibitory, antioxidant, and cytotoxicity assays.
(§2) The cytotoxic potential of the compounds being studied was evaluated by quantifying the extent of the reduction of 3-(4,5-dimethylthiazol-2-yl)-2,5-diphenyltetrazolium bromide (MTT, VWR, Radnor, PA, USA) on tumor cell lines of the colon (Caco-2) and breast (MCF-7) adenocarcinoma and non-tumor human dermal fibroblasts (NHDF). All cell lines were obtained from the American Type Culture Collection (ATCC, Manassas, VA, USA) and were maintained in 75 cm^2 culture flasks in a humidified air incubator with 5% CO2 at 37 °C. NHDF cells have grown in RPMI 1640 medium (Sigma-Aldrich, St. Louis, MO, USA) supplemented with 10% fetal bovine serum (FBS), 10 mM 4-(2-hydroxyethyl)-1-piperazineethanesulfonic acid (HEPES), 2 mM L-glutamine, 1 mM sodium pyruvate, and 1% antibiotic/antimycotic (Ab: 10,000 units/mL penicillin G, […] streptomycin and 25 μg/mL amphotericin B). MCF-7 cells were cultured in high-glucose Dulbecco’s modified Eagle medium (DMEM, Sigma-Aldrich, St. Louis, MO, USA) supplemented with 10% FBS, and 1% Ab. The Caco-2 cell line was cultured in a high glucose DMEM supplemented with 20% FBS and 1% of the antibiotic mixture (Sp: 10,000 units/mL penicillin G and […] of streptomycin). For the assay, cells were seeded in 96-well plates (2 × 10^4 cells/mL) in the culture medium. After 48 h of adherence, cells were treated with the test solutions and incubated for 72 h. […] Untreated cells were used as a negative control and 5-FU as the positive control. Following incubation, the medium was removed and replaced with a fresh incomplete culture medium (without FBS and Ab or Sp) and MTT solution [5 mg/mL in phosphate buffer saline (PBS)]. After further incubation for 4 h at 37 °C, the medium with MTT was removed, formazan crystals were dissolved in DMSO, and the absorbance was read at 570 nm. Results were expressed as the relative cell proliferation in comparison with the negative control cells.
(§3) All in vitro results are expressed as mean values ± standard deviation (SD) of at least two independent determinations. The difference between groups was analyzed for each assay by Student’s t-test. The IC50 values were calculated by sigmoidal fitting analysis considering a 95% confidence interval.

[2] = Cytotoxicity assay (MTT) on NHDF; format: cell-based, human; conditions: human, NHDF cells (non-tumor human dermal fibroblasts), 72 h, MTT; for viability at 72 h, 30 µM: read-out: Cytotoxicity (% cell viability at 30 µM) NHDF
Description: as §1, §2, §3

[3] = system: NHDF cells (non-tumor human dermal fibroblasts); experiment: Cytotoxicity assay (MTT) on NHDF; format: cell-based
Description: as §1, §2, §3

[4] = Cytotoxicity/antiproliferative assay (MTT) on Caco-2; format: cell-based; conditions: human, read-out: Cytotoxicity (% cell viability at 30 µM) Caco-2
Description: as §1, §2, §3

[5] = Antioxidant assay, DPPH method; conditions: 60 min
Description: as §1
Antioxidant potential was spectrophotometrically evaluated by the 2,2-diphenyl-1-picrylhydrazyl (DPPH, Sigma-Aldrich, St. Louis, MO, USA) method. All solutions and dilutions were prepared in 99.5% ethanol before each experiment. For each assay, 100 μL of the test solution and 100 μL of DPPH solution (0.2 mM) were added to each well of a 96 wells Elisa microplate. […] After 60 min of incubation in dark at rt, the capacity of each compound to reduce DPPH was followed by measuring the absorbance at 517 nm. Ethanol was used as a negative control and Trolox as the positive control. To discount the absorbance of each compound at 517 nm, a blank was performed with 100 μL of each test compound and 100 μL of ethanol. The antioxidant capacity of each sample was calculated according to the following formula:% DPPH scavenging = [1 − (ABSsample − ABSblank of sample)/ABSnegative control] × 100
as §3

[6] = molecular target: T1, Xanthine oxidase (XO) (Bos taurus, UniProt P80457); experiment: XO inhibitory assay (spectrophotometric quantification of uric acid formation at 295 nm); format: biochemical; conditions: for inhibition at 5 µM / inhibition at 30 µM: read-out: XO inhibition (%)
T1 construct: purchased Sigma-Aldrich X4875
T1 sequence (P80457 whole entry): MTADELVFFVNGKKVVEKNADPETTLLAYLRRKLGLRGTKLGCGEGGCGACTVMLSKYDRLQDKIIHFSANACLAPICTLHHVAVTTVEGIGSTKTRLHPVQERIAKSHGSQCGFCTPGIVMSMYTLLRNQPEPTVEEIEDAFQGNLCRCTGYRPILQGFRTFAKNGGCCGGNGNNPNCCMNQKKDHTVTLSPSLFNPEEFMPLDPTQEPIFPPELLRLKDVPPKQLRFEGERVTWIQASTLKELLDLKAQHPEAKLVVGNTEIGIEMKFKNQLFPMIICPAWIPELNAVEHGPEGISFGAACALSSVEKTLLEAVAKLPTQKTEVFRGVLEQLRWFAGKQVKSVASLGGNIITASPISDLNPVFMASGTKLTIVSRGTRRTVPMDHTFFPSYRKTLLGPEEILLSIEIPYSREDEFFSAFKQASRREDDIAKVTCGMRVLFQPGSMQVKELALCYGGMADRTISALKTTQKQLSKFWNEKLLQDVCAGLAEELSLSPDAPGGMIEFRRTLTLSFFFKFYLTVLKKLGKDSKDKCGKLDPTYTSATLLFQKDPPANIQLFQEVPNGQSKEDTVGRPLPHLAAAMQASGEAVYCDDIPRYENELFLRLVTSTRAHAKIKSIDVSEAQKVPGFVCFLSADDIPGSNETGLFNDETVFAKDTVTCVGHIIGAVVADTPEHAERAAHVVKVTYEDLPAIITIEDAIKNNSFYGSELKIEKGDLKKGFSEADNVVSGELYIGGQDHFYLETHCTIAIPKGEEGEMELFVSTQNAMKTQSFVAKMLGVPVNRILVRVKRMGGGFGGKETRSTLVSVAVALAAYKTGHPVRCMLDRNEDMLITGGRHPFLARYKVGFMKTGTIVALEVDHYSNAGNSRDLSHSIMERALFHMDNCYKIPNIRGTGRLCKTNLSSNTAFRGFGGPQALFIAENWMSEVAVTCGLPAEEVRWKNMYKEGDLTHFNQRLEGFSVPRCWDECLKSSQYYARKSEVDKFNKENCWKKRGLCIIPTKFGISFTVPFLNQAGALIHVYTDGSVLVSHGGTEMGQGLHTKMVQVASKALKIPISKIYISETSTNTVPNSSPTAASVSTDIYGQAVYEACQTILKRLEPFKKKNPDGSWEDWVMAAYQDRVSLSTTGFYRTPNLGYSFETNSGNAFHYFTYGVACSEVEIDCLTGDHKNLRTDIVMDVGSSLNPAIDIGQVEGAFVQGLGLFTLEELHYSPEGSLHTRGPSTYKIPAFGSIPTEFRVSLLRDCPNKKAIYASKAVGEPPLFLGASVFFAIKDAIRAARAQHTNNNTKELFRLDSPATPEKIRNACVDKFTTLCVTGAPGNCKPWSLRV
Description: as §1, with “A second screening at 5 μM was performed for compounds that originated an inhibitory potential higher than 80% for the XO activity at 30 μM.” left out
The XO inhibitory activity was evaluated by spectrophotometric quantification of uric acid formation. The 50 mM dihydrogen phosphate buffer (pH 7.4) was used to dilute all solutions. For each assay performed, 50 μL of the test solution and 50 μL of the 0.1 U/mL XO (Sigma-Aldrich X4875, St. Louis, MO, USA) solution were added in each well of an Elisa microplate (96 wells) followed by 5 min of incubation at 37 °C. […] The reaction started with the addition of 150 μL of a xanthine solution (420 μM). The absorbance was recorded at a wavelength of 295 nm every minute for 10 min. To obtain only the absorbance associated with uric acid, a solution consisting of 50 μL of the test solution, 150 μL of the xanthine solution, and 50 μL of buffer were used as blank. […] For each compound, the percentage of enzyme inhibition was calculated according to the following formula:% of XO inhibition = [1 − (ABSsample − ABSblank of sample)/ABSnegative control] × 100
as §3

Row | SMILES | viability at 72 h, 30 µM [1] [%] | viability at 72 h, 30 µM [2] [%] | IC50 at 72 h [2] [µM] | selectivity index for DPPH scavenging activity ([3]; NHDF cytotoxicity versus DPPH scavenging) | selectivity index for XO inhibition ([3]; NHDF cytotoxicity versus XO inhibition) | viability at 72 h, 30 µM [4] [%] | DPPH (% scavenging at 30 µM) [5] [%] | IC50 ([5]; read-out: DPPH Scavenging IC50) [µM] | IC50 [6] [µM] | inhibition at 5 µM [6] [%] | inhibition at 30 µM [6] [%] | melting point [°C]
1 | CCn1c(O)c(C(c2ccc(Br)cc2)c2c(O)n(CC)c(=S)n(CC)c2=O)c(=O)n(CC)c1=S [Compound 11, 5,5′-((4-Bromophenyl)methylene)bis(1,3-diethyl-6-hydroxy-2-thioxo-2,3-dihydropyrimidin-4(1H)-one)] | 92.2 ± 3.68 | 94.3 ± 7.84 | 93.2 ± 5.54 | 3.77 | 52.04 | 72.3 ± 9.76 | 57.25 ± 0.98 | 24.7 ± 0.88 | 1.79 ± 0.07 | 80.9 | 95.7 | 
2 | CCn1c(O)c(C(c2ccc([N+](=O)[O-])cc2[N+](=O)[O-])c2c(O)n(CC)c(=S)n(CC)c2=O)c(=O)n(CC)c1=S [Compound 15, 5,5′-((2,4-Dinitrophenyl)methylene)bis(1,3-diethyl-6-hydroxy-2-thioxo-2,3-dihydropyrimidin-4(1H)-one)] | 91.2 ± 4.26 | 91.2 ± 7.77 |  |  |  | 96.9 ± 4.73 | 32.33 ± 0.48 |  |  |  | 14.9 | 169 to 170
3 | CCn1c(O)c(C(c2cc(O)ccc2[N+](=O)[O-])c2c(O)n(CC)c(=S)n(CC)c2=O)c(=O)n(CC)c1=S [Compound 16, 5,5′-((5-Hydroxy-2-nitrophenyl)methylene)bis(1,3-diethyl-6-hydroxy-2-thioxo-2,3-dihydropyrimidin-4(1H)-one)] | 91.1 ± 2 | 60.7 ± 1.72 |  |  |  | 95.4 ± 3.3 | 31.35 ± 0.91 |  |  |  | 61.4 | 167 to 169
4 | CCn1c(O)c(C(c2cc3c(cc2[N+](=O)[O-])OCO3)c2c(O)n(CC)c(=S)n(CC)c2=O)c(=O)n(CC)c1=S [Compound 17, 5,5′-((6-Nitrobenzo[d][1,3]dioxol-5-yl)methylene)bis(1,3-diethyl-6-hydroxy-2-thioxo-2,3-dihydropyrimidin-4(1H)-one)] | 86.6 ± 5.87 | 68.9 ± 9.33 |  |  |  | 88.7 ± 7.85 | 40.90 ± 0.65 |  |  | 55.2 ± 1.63 | 90.8 ± 2.87 | 148 to 149
5 | CCn1c(O)c(C(C(C)=Cc2ccccc2)c2c(O)n(CC)c(=S)n(CC)c2=O)c(=O)n(CC)c1=S [Compound 18, 5,5′-(2-Methyl-3-phenylprop-2-ene-1,1-diyl)bis(1,3-diethyl-6-hydroxy-2-thioxo-2,3-dihydropyrimidin-4(1H)-one)] | 88.3 ± 3.29 | 86.5 ± 2.38 |  |  |  | 94.7 ± 7.19 | 31.04 ± 0.66 |  |  | 63.4 ± 2.1 | 98.85 ± 0.82 | 145 to 146
6 | CCn1c(O)c(C(c2cccnc2)c2c(O)n(CC)c(=S)n(CC)c2=O)c(=O)n(CC)c1=S [Compound 19, 5,5′-(Pyridin-3-ylmethylene)bis(1,3-diethyl-6-hydroxy-2-thioxo-2,3-dihydropyrimidin-4(1H)-one)] | 93.7 ± 5.68 | 81 ± 3.57 |  |  |  | 80.7 ± 13 | 3.83 ± 2.44 |  |  | 67.3 ± 1.27 | 91.7 ± 1.87 | 253 to 254

From article PMC8533253, “Bis-thiobarbiturates as Promising Xanthine Oxidase Inhibitors: Synthesis and Biological Evaluation” (Biomedicines, 2021)
